Test results taken from the supplement of paper PMC6965134.
± gives the standard deviation of the averaged measurements.

Test: TIMS collisional cross section (CCS, N2) of the lipid ion; higher = larger ion cross section
Conditions: ionization mode: negative, one isomer drawn
Experimental: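 Lipid extracts of human plasma (NIST SRM 1950), mouse liver or HeLa cells were separated by nanoflow C18 LC (30 min gradient) and analysed by TIMS-PASEF on a timsTOF Pro. Ion mobility was calibrated with the Agilent tuning mix (negative mode ions) and converted to collisional cross sections (Mason–Schamp, N2).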
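Further: lipids from MTBE extraction, five replicate injections per sample, 100 ms TIMS ramp spanning 0.6–1.95 Vs/cm², lipid identity assigned from PASEF MS/MS spectra.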

## CCCCC/C=C\C/C=C\CCCCCCCCCC(=O)OC[C@@H](O)COP(=O)([O-])OCC[N+](C)(C)C [LPC 20:2_0:0]
Sample type: Human plasma, ion (formula + adduct): [C28H54NO7P+HCOO] 1-
  TIMS collisional cross section: 246.6 Å²
Sample type: Mouse Liver, ion (formula + adduct): [C28H54NO7P+HCOO] 1-
  TIMS collisional cross section: 245.7 ± 0.42 Å²

## CCCCC/C=C\C/C=C\C/C=C\CCCCCCC(=O)OC[C@@H](O)COP(=O)([O-])OCC[N+](C)(C)C [LPC 20:3_0:0]
Sample type: Human plasma, ion (formula + adduct): [C28H52NO7P+HCOO] 1-
  TIMS collisional cross section: 245.03 ± 0.87 Å²
Sample type: Human plasma, ion (formula + adduct): [C28H52NO7P-CH3] 1-
  TIMS collisional cross section: 225.9 Å²

## CCCCC/C=C\C/C=C\C/C=C\C/C=C\CCCC(=O)OC[C@@H](O)COP(=O)([O-])OCC[N+](C)(C)C [LPC 20:4_0:0]
Sample type: Human plasma, ion (formula + adduct): [C28H50NO7P+HCOO] 1-
  TIMS collisional cross section: 243.1 Å²
Sample type: Human plasma, ion (formula + adduct): [C28H50NO7P-CH3] 1-
  TIMS collisional cross section: 225.9 ± 0.85 Å²

## CC/C=C\C/C=C\C/C=C\C/C=C\C/C=C\CCCC(=O)OC[C@@H](O)COP(=O)([O-])OCC[N+](C)(C)C [LPC 20:5_0:0]
Sample type: Human plasma, ion (formula + adduct): [C28H48NO7P+HCOO] 1-
  TIMS collisional cross section: 242.5 Å²
Sample type: Human plasma, ion (formula + adduct): [C28H48NO7P-CH3] 1-
  TIMS collisional cross section: 224.7 Å²
Sample type: Mouse Liver, ion (formula + adduct): [C28H48NO7P+HCOO] 1-
  TIMS collisional cross section: 241.9 Å²

## CCCCCCCCCCCCCCCCCCCCCC(=O)OC[C@@H](O)COP(=O)([O-])OCC[N+](C)(C)C [LPC 22:0_0:0]
Sample type: Human plasma, ion (formula + adduct): [C30H62NO7P+HCOO] 1-
  TIMS collisional cross section: 258.6 Å²
Sample type: Mouse Liver, ion (formula + adduct): [C30H62NO7P+HCOO] 1-
  TIMS collisional cross section: 258.6 Å²

## CCCCC/C=C\C/C=C\CCCCCCCCCCCC(=O)OC[C@@H](O)COP(=O)([O-])OCC[N+](C)(C)C [LPC 22:2_0:0]
Sample type: Human plasma, ion (formula + adduct): [C30H58NO7P+HCOO] 1-
  TIMS collisional cross section: 254.2 Å²

## CCCCC/C=C\C/C=C\C/C=C\C/C=C\CCCCCC(=O)OC[C@@H](O)COP(=O)([O-])OCC[N+](C)(C)C [LPC 22:4_0:0]
Sample type: Human plasma, ion (formula + adduct): [C30H54NO7P+HCOO] 1-
  TIMS collisional cross section: 249 ± 0.42 Å²
Sample type: Human plasma, ion (formula + adduct): [C30H54NO7P-CH3] 1-
  TIMS collisional cross section: 231.5 Å²
Sample type: Mouse Liver, ion (formula + adduct): [C30H54NO7P+HCOO] 1-
  TIMS collisional cross section: 248.7 Å²

## CC/C=C\C/C=C\C/C=C\C/C=C\C/C=C\C/C=C\CCC(=O)OC[C@@H](O)COP(=O)([O-])OCC[N+](C)(C)C [LPC 22:6_0:0]
Sample type: Human plasma, ion (formula + adduct): [C30H50NO7P+HCOO] 1-
  TIMS collisional cross section: 246.7 ± 0.42 Å²
Sample type: Human plasma, ion (formula + adduct): [C30H50NO7P-CH3] 1-
  TIMS collisional cross section: 230.4 Å²
Sample type: Mouse Liver, ion (formula + adduct): [C30H50NO7P+HCOO] 1-
  TIMS collisional cross section: 247 Å²

## CCCCCCCCCCCCCCCCOCC(O)COP(=O)([O-])OCC[N+](C)(C)C (stereo not drawn) [LPC O- 16:0]
Sample type: Human plasma, ion (formula + adduct): [C24H52NO6P+HCOO] 1-
  TIMS collisional cross section: 236.6 Å²

## CCCCCCCCCCCCCCCCCCOCC(O)COP(=O)([O-])OCC[N+](C)(C)C (stereo not drawn) [LPC O- 18:0]
Sample type: Human plasma, ion (formula + adduct): [C26H56NO6P+HCOO] 1-
  TIMS collisional cross section: 243.4 Å²

## CCCCCC/C=C\CCCCCCCCCCOC[C@@H](O)COP(=O)([O-])OCC[N+](C)(C)C [LPC O- 18:1_0:0]
Sample type: Human plasma, ion (formula + adduct): [C26H54NO6P+HCOO] 1-
  TIMS collisional cross section: 244 Å²

## CCCCCCCCCCCCCCCC(=O)OC[C@@H](O)COP(=O)(O)OCCN [LPE 16:0_0:0]
Sample type: Human plasma, ion (formula + adduct): [C21H44NO7P-CH3] 1-
  TIMS collisional cross section: 207.4 Å²
Sample type: Human plasma, ion (formula + adduct): [C21H44NO7P-H] 1-
  TIMS collisional cross section: 214 ± 5.5 Å²
Sample type: Mouse Liver, ion (formula + adduct): [C21H44NO7P-H] 1-
  TIMS collisional cross section: 219.47 ± 10 Å²

## CCCCCC/C=C\CCCCCCCC(=O)OC[C@@H](O)COP(=O)(O)OCCN [LPE 16:1_0:0]
Sample type: Human plasma, ion (formula + adduct): [C21H42NO7P-H] 1-
  TIMS collisional cross section: 208.4 Å²
Sample type: Mouse Liver, ion (formula + adduct): [C21H42NO7P-H] 1-
  TIMS collisional cross section: 208.4 Å²

## CCCCCCCCCCCCCCCCCC(=O)OC[C@@H](O)COP(=O)(O)OCCN [LPE 18:0_0:0]
Sample type: Human plasma, ion (formula + adduct): [C23H48NO7P-CH3] 1-
  TIMS collisional cross section: 214.1 Å²
Sample type: Human plasma, ion (formula + adduct): [C23H48NO7P-H] 1-
  TIMS collisional cross section: 218.1 Å²
Sample type: Mouse Liver, ion (formula + adduct): [C23H48NO7P-H] 1-
  TIMS collisional cross section: 217.5 ± 0.6 Å²

## CCCCCCCC/C=C\CCCCCCCC(=O)OC[C@@H](O)COP(=O)(O)OCCN [LPE 18:1_0:0]
Sample type: Human plasma, ion (formula + adduct): [C23H46NO7P-H] 1-
  TIMS collisional cross section: 215.5 ± 1 Å²
Sample type: Mouse Liver, ion (formula + adduct): [C23H46NO7P-H] 1-
  TIMS collisional cross section: 215.2 ± 1 Å²

## CCCCC/C=C\C/C=C\CCCCCCCC(=O)OC[C@@H](O)COP(=O)(O)OCCN [LPE 18:2_0:0]
Sample type: Human plasma, ion (formula + adduct): [C23H44NO7P-H] 1-
  TIMS collisional cross section: 212.88 ± 0.79 Å²
Sample type: Mouse Liver, ion (formula + adduct): [C23H44NO7P-H] 1-
  TIMS collisional cross section: 212.2 Å²

## CCCCC/C=C\C/C=C\C/C=C\CCCCC(=O)OC[C@@H](O)COP(=O)(O)OCCN [LPE 18:3_0:0]
Sample type: Human plasma, ion (formula + adduct): [C23H42NO7P-H] 1-
  TIMS collisional cross section: 211.6 Å²

## CCCCCCCCCCCCCCCCCCCC(=O)OC[C@@H](O)COP(=O)(O)OCCN [LPE 20:0_0:0]
Sample type: Human plasma, ion (formula + adduct): [C25H52NO7P-H] 1-
  TIMS collisional cross section: 224.9 Å²
Sample type: Mouse Liver, ion (formula + adduct): [C25H52NO7P-CH3] 1-
  TIMS collisional cross section: 220.9 Å²

## CCCCCCCC/C=C\CCCCCCCCCC(=O)OC[C@@H](O)COP(=O)(O)OCCN [LPE 20:1_0:0]
Sample type: Mouse Liver, ion (formula + adduct): [C25H50NO7P-H] 1-
  TIMS collisional cross section: 222.6 Å²

## CCCCC/C=C\C/C=C\C/C=C\CCCCCCC(=O)OC[C@@H](O)COP(=O)(O)OCCN [LPE 20:3_0:0]
Sample type: Mouse Liver, ion (formula + adduct): [C25H46NO7P-H] 1-
  TIMS collisional cross section: 217.6 ± 0.42 Å²

## CCCCC/C=C\C/C=C\C/C=C\C/C=C\CCCC(=O)OC[C@@H](O)COP(=O)(O)OCCN [LPE 20:4_0:0]
Sample type: Mouse Liver, ion (formula + adduct): [C25H44NO7P-H] 1-
  TIMS collisional cross section: 217.3 Å²

## CC/C=C\C/C=C\C/C=C\C/C=C\C/C=C\CCCC(=O)OC[C@@H](O)COP(=O)(O)OCCN [LPE 20:5_0:0]
Sample type: Human plasma, ion (formula + adduct): [C25H42NO7P-H] 1-
  TIMS collisional cross section: 216.7 Å²
Sample type: Mouse Liver, ion (formula + adduct): [C25H42NO7P-H] 1-
  TIMS collisional cross section: 216.7 Å²

## CCCCC/C=C\C/C=C\C/C=C\C/C=C\CCCCCC(=O)OC[C@@H](O)COP(=O)(O)OCCN [LPE 22:4_0:0]
Sample type: Human plasma, ion (formula + adduct): [C27H48NO7P-H] 1-
  TIMS collisional cross section: 223.5 Å²
Sample type: Mouse Liver, ion (formula + adduct): [C27H48NO7P-H] 1-
  TIMS collisional cross section: 222.9 Å²

## CCCCC/C=C\C/C=C\C/C=C\C/C=C\C/C=C\CCC(=O)OC[C@@H](O)COP(=O)(O)OCCN [LPE 22:5_0:0]
Sample type: Human plasma, ion (formula + adduct): [C27H46NO7P-H] 1-
  TIMS collisional cross section: 222.18 ± 0.25 Å²
Sample type: Mouse Liver, ion (formula + adduct): [C27H46NO7P-H] 1-
  TIMS collisional cross section: 222.05 ± 0.35 Å²

## CC/C=C\C/C=C\C/C=C\C/C=C\C/C=C\C/C=C\CCC(=O)OC[C@@H](O)COP(=O)(O)OCCN [LPE 22:6_0:0]
Sample type: Human plasma, ion (formula + adduct): [C27H44NO7P-H] 1-
  TIMS collisional cross section: 222.4 Å²

## CCCCCCCC/C=C\CCCCCCCCOC[C@@H](O)COP(=O)(O)OCCN [LPE O- 18:1_0:0]
Sample type: Human plasma, ion (formula + adduct): [C23H48NO6P-H] 1-
  TIMS collisional cross section: 218.6 ± 2.1 Å²

## CCCCCCCCCCCCCCCCCC/C=C\OC[C@@H](O)COP(=O)(O)OCCN [LPE O- 20:0_0:0]
Sample type: Human plasma, ion (formula + adduct): [C25H52NO6P-H] 1-
  TIMS collisional cross section: 223.9 Å²
Sample type: Mouse Liver, ion (formula + adduct): [C25H52NO6P-H] 1-
  TIMS collisional cross section: 222.7 Å²

## CCCCCCCCCCCCCCCC(=O)OC[C@@H](O)COP(=O)(O)OC[C@@H](O)CO [LPG 16:0_0:0]
Sample type: Human plasma, ion (formula + adduct): [C22H45O9P-H] 1-
  TIMS collisional cross section: 216.9 Å²

## CCCCCCCCCCCCCCCCCC(=O)OC[C@@H](O)COP(=O)(O)OC[C@@H](O)CO [LPG 18:0_0:0]
Sample type: Human plasma, ion (formula + adduct): [C24H49O9P-H] 1-
  TIMS collisional cross section: 224.9 Å²

## CCCCCCCC/C=C\CCCCCCCC(=O)OC[C@@H](O)COP(=O)(O)OC[C@@H](O)CO [LPG 18:1_0:0]
Sample type: Mouse Liver, ion (formula + adduct): [C24H47O9P-H] 1-
  TIMS collisional cross section: 221.1 Å²

## CCCCCCCCCCCCCCCC(=O)OC[C@@H](O)COP(=O)(O)OC1C(O)C(O)C(O)[C@@H](O)C1O (stereo partly drawn) [LPI 16:0]
Sample type: Mouse Liver, ion (formula + adduct): [C25H49O12P-H] 1-
  TIMS collisional cross section: 232.6 Å²
